Legend:
[1] = test system: CT26 Mouse syngeneic colon tumor model; assay: In vivo combination study, syngeneic mouse tumor isograft model; conditions: note to Table 9
[2] = test system: homologous recombination (HR) repair in 293T cells; assay: Homologous recombination (HR) repair assay, DR-GFP / I-SceI reporter, flow cytometry; format: cell-based, human; conditions: 300 nM Compound 1, 72 hours after transfection
Experimental: The efficiency of homologous recombination (HR) was assessed using an I-SceI expression plasmid (I-SceI) and an I-SceI repair reporter plasmid (DR-GFP) composed of two differentially mutated GFP genes, one of which contained a unique I-SceI restriction site (FIG. 1A). The assay works through gene conversion repair of a double strand break caused by I-SceI digestion. DR-GFP plasmids repaired by homologous recombination express GFP. Human embryonic kidney 293T cells were transfected with either 5 μg of DR-GFP plus 10 μg of I-SceI in presence (300 nM) or absence of Compound 1. Seventy-two hours after transfection, the cells were fixed with 4% paraformaldehyde for 20 min at room temperature, and the number of GFP-expressing cells was assessed by flow cytometry (FIGS. 1B and 1C).

H22 (Hepatoma) = assay: In vivo combination study, syngeneic mouse tumor isograft model; conditions: note to Table 9; by note order: Anti-mCTLA-4 study in H22 (55 mm^3)
Experimental: (§1) To investigate in vivo antitumor activity of Compound 1 in combination with other agents, tests using Cell Derived Xenograft (CDX), Patient Derived Xenograft (PDX) and Syngeneic mouse tumor isograft model were conducted. Cells or Patient Derived Tumors were inoculated by one method of the following two methods (Method A and B) as shown Table 7.
(§2) Method A; Cells were maintained in either immune deficient nude mice or immune competent mice by subcutaneous inoculation of tumor cells at various concentrations into respected mice. Method B: Patient Derived Tumor s were maintained in nude mice by subcutaneous inoculation of tumor pieces (approx. 2×2×2 mm) into nude mice. Mice with tumor size of approximately 50 mm^3 (e.g., 40-75 mm^3) for syngeneic mouse studies or 200 mm^3 (e.g., 110-270 mm^3) for xenograft studies were randomly assigned to dose groups on the day (Day 0) before start date of dosing.
(§3) Compound 1 (crystalline form I) was suspended in 0.5 w/v % methylcellulose and administered orally to mice. Antibodies which administered in the experiment were described in Table 8.
(§4) Tumor size was measured by caliper and tumor volume was estimated using the equation V=(LW^2)/2, where L and W are tumor length and width, respectively and reported in cubic millimeters.
(§5) These values were compared across treatment groups to assess whether the differences in the trends over time were statistically significant. To compare pairs of treatment groups, the following mixed-effects linear regression model was fit to the data using the maximum likelihood method:
(§6) For synergy analyses, the observed differences in the log tumor values were used to calculate AUC values for each animal. In instances when an animal in a treatment group was removed from the study, the last observed tumor value was carried forward through all subsequent time points. The AUC for the control, or vehicle, group was calculated using the predicted values from the pairwise models described above. We defined a measure of synergy as follows:
(§7) where Ak and Bk are the k^th animal in the individual treatment groups and ABk is the k^th animal in combination treatment group. AUCcd is the model-predicted AUC for the control group and was treated as a constant with no variability. The standard error of the synergy score was calculated as the square root of the sum of squared standard errors across groups A, B, and AB. The degrees of freedom were estimated using the Welch-Satterthwaite equation. A hypothesis test was performed to determine if the synergy score differed from 0. P values were calculated by dividing the synergy score by its standard error and tested against a t-distribution (two-tailed) with the above-calculated degrees of freedom.
(§8) The effect was classified into four different categories. It was considered synergistic if the synergy score was less than 0 and additive if the synergy score wasn't statistically different from 0. If the synergy score was greater than zero, but the mean AUC for the combination was lower than the lowest mean AUC among the two single agent treatments, then the combination was sub-additive. If the synergy score was greater than zero, and the mean AUC for the combination was greater than the mean AUC for at least one of the single agent treatments, then the combination was antagonistic.

JC (Breast) = assay: as above; conditions: note to Table 9
Experimental: as §1, §2, §3, §4, §5, §6, §7, §8

Panc02 (Pancreatic) = assay: as above; conditions: note to Table 9
Experimental: as §1, §2, §3, §4, §5, §6, §7, §8

[3] = test system: J558 mouse plasmacytoma tumors; assay: as above; conditions: note to Table 9
Experimental: as §1, §2, §3, §4, §5, §6, §7, §8

[4] = test system: Twelve cancer cell lines (A549, BxPC3, Calu-1, COLO205, KYSE140, KYSE150, KYSE520, KYSE70, MIA PaCa-2, NCI-H292, PANC1, and RKO); assay: CRISPR-Cas9 knock-out screening for genes sensitizing to compound 1; format: cell-based; conditions: hit genes: ES<0 and p-value <0.05, control vs low dose compound 1, in more than three cancer cell lines

Cc1[nH]ncc1-c1cc2nc([C@@H]3CC4CCN3CC4)[nH]c(=O)c2s1 [Compound 1, 2-[(2S)-1-azabicyclo[2.2.2]oct-2-yl]-6-(3-methyl-1H-pyrazol-4-yl)thieno[3,2-d]pyrimidin-4(3H)-one]
CR per group ([1]; by note order: Anti-mCTLA-4 study in CT26 (40 mm^3)): 0 | CR per group ([1]; by note order: Anti-mCTLA-4 study in CT26 (50 mm^3)): 0 | CR per group ([1]; by note order: Anti-mPD-1 study in CT26 (40 mm^3)): 0 | CR per group ([1]; by note order: Anti-mPD-1 study in CT26 (50 mm^3)): 0 | CR per group ([1]; by note order: Anti-mPD-1 study in CT26 (64 mm^3)): no CR | CR per group ([1]; by note order: NKTR-214 + anti-mPD-1 study in CT26 (64 mm^3)): no CR | CR per group ([1]; by note order: NKTR-214 study in CT26 (64 mm^3)): no CR | HR repair activity (GFP-expressing cells) [2]: suppresses HR repair activity | CR per group (H22 (Hepatoma)): 0 | CR per group (JC (Breast); by note order: Anti-mCTLA-4 study in JC (60 mm^3)): 0 CR in CTLA-4 group and 0 CR in Compound 1 group, and 0 CR in Compound 1/CTLA-4 combo group | CR per group (JC (Breast); by note order: Anti-mPD-1 study in JC (60 mm^3)): 0 CR in PD-1 group and 0 CR in Compound 1 group, and 0 CR in Compound 1/PD-1 combo group | CR per group (Panc02 (Pancreatic); by note order: Anti-mPD-1 study in Panc02 (75 mm^3)): 0 CR in PD-1 group and 0 CR in Compound 1 group, and 0 CR in Compound 1/PD-1 combo group | CR per group (Panc02 (Pancreatic); by note order: Gemcitabine study in Panc02 (75 mm^3)): 0 CR in Gemcitabine group and 0 CR in Compound 1 group, and 0 CR in Compound 1/Gemcitabine combo group | CR per group ([3]; by note order: Anti-mCTLA-4 study in J558 (30 mm^3)): 2 | CR per group ([3]; by note order: Anti-mPD-1 study in J558 (30 mm^3)): 2 | CR per group ([3]; by note order: Anti-mPD-L1 study in J558 (30 mm^3)): 2 | sensitivity of cancer cells with mutation or deletion of at least one sensitizing hit gene [4]: more sensitive
